The nature of data set [1]: in vitro. Particulars: human, pH 7.4.
Data set [2] is described as follows: in vitro. Particulars: human, Caco-2, pH 7.4.
Data set [3] has as its target T1, P-gp (Homo sapiens, UniProt P08183). In words: in vitro. As to the method:
(§1) Bidirectional Transcellular Transport assay.
(§2) Each determination was performed in duplicate.
The assay was carried out after each clone had been passaged 9 times.

Data set [4] relates to P-gp mRNA. In words: RT-PCR of P-gp mRNA expression in transduced C2BBe1 cells. Particulars: for P-gp mRNA expression relative to control C2BBe1 cells: RT-PCR, shRNA/P-gp clone cells. The format is cell-based, human. As to the method:
(§3) RT-PCR. Total RNA was extracted from cells according to the following protocol. Cells were harvested from culture by centrifugation, resuspended in 1 ml of TRIzol® reagent (Invitrogen, Carlsbad, Calif.), and incubated at room temperature for 5 minutes with gentle shaking. The suspension was transferred to a 1.5 ml centrifuge tube, to which 200 μl of Chloroform was added, followed by an additional 5 minute incubation period with shaking. After incubation, the suspension was centrifuged at 12,000×g for 12 minutes at 4° C. The supernatant was transferred to a fresh, sterile 1.5 ml centrifuge tube, and supplemented with 0.5 ml of 2-propanaol per 1 ml of TRIzol reagent, and incubated for 10 minutes at room temperature. The mixture was then centrifuged at 12,000×g for an additional 12 minutes at 4° C. After centrifugation, the supernatant was removed and the pellet was washed with 75% ethanol. The sample was re-centrifuged at 7500×g for 5 minutes at 4° C., followed by the removal of the supernatant. The pellet was allowed to air dry at room temperature. The pellet was resuspended in pre-warmed (55° C.) nuclease-free water, and incubated at 55° C. for 10 minutes. RNA yield and purity were quantified by absorbance at 260 nm and 280 nm.
(§4) RT-PCR mixtures were set up as 50 μl samples containing buffer, 1-2 μg of RNA, 10 μM of Forward primer, 10 μM of Reverse primer, Taq polymerase, and water. Primers to amplify human P-gylcoprotein were as follows: P-gp Forward 5′-[…]-3′ (SEQ ID NO: 9); and, P-gp Reverse 5′-[…]-3′ (SEQ ID NO: 10). Primers to amplify human MRP2 were as follows: MRP2 Forward 5′-[…]-3′ (SEQ ID NO: 11); and, MRP2 Reverse 5′-[…]-3′ (SEQ ID NO: 12). Primes to amplify human BCRP were as follows: BCRP Forward 5′-[…] 3′ (SEQ ID NO: 13); and, BCRP Reverse 5′-[…] 3′ (SEQ ID NO: 14). Human β-actin was amplified in parallel as a positive control using the following primers: β-actin Forward 5′-[…]-3′ (SEQ ID NO: 15); and, β-actin Reverse 5′-[…]-3′ (SEQ ID NO: 16).
(§5) The PCR cycles proceeded in a programmable thermocycler with the following parameters: cDNA synthesis, 1 cycle, 55° C. for 30 minutes; denaturation, 1 cycle, 94° C. for 2 minutes; PCR amplification, 40 cycles of 94° C. for 15 seconds, 62° C. for 30 seconds, 72° C. for 1 minute; and, final extension, 1 cycle, 72° C. for 5 minutes. Amplification was confirmed by electrophoresis in 2% agarose gels.
Gene expression of P-gp in knockdown cells (shRNA/P-gp clones #83, 84, 85, 86, and 87) was determined by observing P-gp mRNA content, protein content and protein functional activity. RT-PCR was used to determine the expression of the P-gp mRNA. Total cellular RNA was harvested and amplified using primers specific to P-gp mRNA. RT-PCR products were then separated by electrophoresis on a 2% agarose gel. It was determined that 4 of the 5 shRNA/P-gp clone cells contained substantially less P-gp mRNA than control C2BBe1 cells (FIG. 2, top panel). β-actin was amplified, in parallel, as a positive control, and its expression was not affected by the interfering shRNA (FIG. 2, bottom panel).

The target of data set [5] is T2, BCRP (Homo sapiens, UniProt Q9UNQ0).
T2 sequence (Q9UNQ0 1-655): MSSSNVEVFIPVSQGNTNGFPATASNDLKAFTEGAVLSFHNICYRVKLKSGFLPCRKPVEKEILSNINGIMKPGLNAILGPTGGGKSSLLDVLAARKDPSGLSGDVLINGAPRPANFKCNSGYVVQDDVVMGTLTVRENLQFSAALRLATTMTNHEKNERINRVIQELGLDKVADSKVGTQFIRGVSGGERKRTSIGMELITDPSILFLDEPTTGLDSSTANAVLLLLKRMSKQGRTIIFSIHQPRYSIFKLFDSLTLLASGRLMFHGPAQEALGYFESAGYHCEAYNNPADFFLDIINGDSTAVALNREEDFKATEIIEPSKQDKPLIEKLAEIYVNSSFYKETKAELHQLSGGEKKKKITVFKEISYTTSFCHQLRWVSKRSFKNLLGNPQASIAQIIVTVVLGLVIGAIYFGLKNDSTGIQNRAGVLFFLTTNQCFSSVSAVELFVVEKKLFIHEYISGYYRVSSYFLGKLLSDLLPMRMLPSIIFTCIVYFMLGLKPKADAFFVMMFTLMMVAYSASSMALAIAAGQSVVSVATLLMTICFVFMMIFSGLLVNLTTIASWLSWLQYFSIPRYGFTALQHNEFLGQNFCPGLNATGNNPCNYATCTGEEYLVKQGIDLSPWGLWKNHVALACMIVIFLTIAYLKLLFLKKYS
Briefly: Bidirectional transcellular transport of E3S (BCRP substrate) across C2BBe1-derived monolayers. The note with it: compared to control cells. As for the experimental part:
as §1, §2
Each of the five shRNA/BCRP knockdown clone cells were seeded on transwells for three weeks for the transport assay.

The test system of data set [6] is MRP2 mRNA. Briefly: RT-PCR of MRP2 mRNA expression in transduced C2BBe1 cells. The format is cell-based, human. Particulars: cells passaged 20 times. As for the experimental part:
as §3, §4, §5
For this example, gene expression of MRP2 in C2BBe1 cells was determined by observing both the MRP2 mRNA content as well as the protein content of the cells following viral transduction. To examine mRNA content, total cellular RNA was harvested and amplified by RT-PCR using primers specific to the MRP2 gene (SEQ ID NO: 11 and 12). The RT-PCR products were then analyzed after separation by electrophoresis on a 2% agarose gel.
Vector control (VC) cells were prepared from cells transducted with lentiviruses encoding a non-interfering nucleic acid sequence (SEQ ID NO 27), as described in Example 7. Methods were described in Example 1. […]

The subject of data set [7] is BCRP mRNA. In words: RT-PCR of BCRP mRNA expression in transduced C2BBe1 cells. The class given is cell-based, human. The note with it: between passages 5 and 20. As to the method: as §3, with “The sample was re-centrifuged at 7500×g for 5 minutes at 4° C., followed by the removal of the supernatant. The pellet was allowed to air dry at room temperature. The pellet was resuspended in pre-warmed (55° C.) nuclease-free water, and incubated at 55° C. for 10 minutes.” left out, “nm. […]” for “nm.”
For RT-PCR, total cellular RNA was harvested as described in Examples 1 and 3 and amplified by RT-PCR using primers specific to BCRP mRNA (SEQ ID NOs: 13 and 14). The RT-PCR products were separated by electrophoresis on a 2% agarose gel and analyzed to determine whether shRNA/BCRP clone cells produced substantially less BCRP mRNA than C2BBe1 cells transduced with a non-interfering shRNA vector control.

In data set [8] the target is T1, P-gp. Briefly: Calcein-AM assay. The note with it: transduced C2BBe1 cells vs Un-KD. As to the method:
Calcein-AM assay. To determine activity of the P-gp protein, calcein-AM assays were conducted.
To determine the P-gp activity, cells were plated in 96-well tissue culture plates and cultured for 48. After 48 hours, cell culture media was removed and the cells were washed with phosphate buffered saline solution (PBS). After washing, cells were incubated with 1 μM calcein-AM for 30 minutes. […] After incubation with calcein-AM, the cells were rinsed with fresh control buffer and fluorescence was measured using a Fluo-star fluorescence plate reader (BMG Lab Technologies, N.C.) with excitation and emission filters set at wavelengths of 485 nm and 538 nm, respectively.
Calcein-AM efflux is not mediated by BCRP. Therefore, any increase in calcein-AM uptake by the cells can be attributed to P-gp inhibition. The cells were plated in 96-well tissue culture plates and cultured for 48 hours. After 48 hours, cell culture media was removed and the cells were washed with phosphate buffered saline solution (PBS). After washing, cells were incubated with 1 μM calcein-AM for 30 minutes. […] After incubation with calcein-AM, the cells were rinsed with fresh control buffer and fluorescence was measured using a Fluo-star fluorescence plate reader (BMG Lab Technologies, N.C.) with excitation and emission filters set at wavelengths of 485 nm and 538 nm, respectively. The assay was carried out after each clone had been passaged 9 times.

T1 sequence (P08183 whole entry): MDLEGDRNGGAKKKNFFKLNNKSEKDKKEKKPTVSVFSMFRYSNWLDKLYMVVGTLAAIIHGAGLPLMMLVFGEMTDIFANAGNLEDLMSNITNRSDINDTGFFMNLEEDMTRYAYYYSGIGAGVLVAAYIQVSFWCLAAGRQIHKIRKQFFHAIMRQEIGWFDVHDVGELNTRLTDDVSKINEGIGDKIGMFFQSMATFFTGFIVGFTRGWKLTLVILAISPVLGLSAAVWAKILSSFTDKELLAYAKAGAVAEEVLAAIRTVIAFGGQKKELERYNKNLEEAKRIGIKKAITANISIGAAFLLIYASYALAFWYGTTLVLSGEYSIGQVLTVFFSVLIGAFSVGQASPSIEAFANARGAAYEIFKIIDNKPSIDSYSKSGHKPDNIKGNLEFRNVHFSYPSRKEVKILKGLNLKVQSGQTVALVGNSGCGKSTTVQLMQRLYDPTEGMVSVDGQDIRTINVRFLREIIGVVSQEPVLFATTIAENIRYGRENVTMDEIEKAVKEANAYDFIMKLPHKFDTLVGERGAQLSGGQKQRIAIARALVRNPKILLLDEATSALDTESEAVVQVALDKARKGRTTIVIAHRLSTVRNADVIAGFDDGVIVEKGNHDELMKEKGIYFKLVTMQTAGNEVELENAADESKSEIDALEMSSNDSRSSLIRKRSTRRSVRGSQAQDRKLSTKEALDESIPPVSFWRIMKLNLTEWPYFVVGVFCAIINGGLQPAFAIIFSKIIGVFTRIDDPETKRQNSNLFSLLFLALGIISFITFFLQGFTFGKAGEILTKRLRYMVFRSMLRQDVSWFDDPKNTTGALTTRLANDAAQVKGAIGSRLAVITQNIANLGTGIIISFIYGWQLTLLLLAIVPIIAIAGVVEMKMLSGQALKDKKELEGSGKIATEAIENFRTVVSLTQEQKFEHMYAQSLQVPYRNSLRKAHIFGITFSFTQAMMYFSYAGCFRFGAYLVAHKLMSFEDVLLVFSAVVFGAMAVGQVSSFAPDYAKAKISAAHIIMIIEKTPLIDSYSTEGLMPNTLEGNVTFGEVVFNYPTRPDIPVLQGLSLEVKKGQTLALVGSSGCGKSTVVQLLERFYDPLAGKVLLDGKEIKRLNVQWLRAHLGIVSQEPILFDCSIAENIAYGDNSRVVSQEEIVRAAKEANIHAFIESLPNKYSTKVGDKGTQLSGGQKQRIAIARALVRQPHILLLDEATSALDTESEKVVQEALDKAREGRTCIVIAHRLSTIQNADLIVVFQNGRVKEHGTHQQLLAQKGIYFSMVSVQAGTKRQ

With `Cc1cc(=O)n(-c2ccccc2)n1C` [Antipyrine], the figures for the efflux ratio at 2 h in data set [1] and in data set [2] were 0.92 and 0.84, respectively.

For the molecule `CNCCCN1c2ccccc2CCc2ccccc21` [Desipramine], the values for the efflux ratio at 2 h in data set [1] and in data set [2] were 6.84 and 5.59, respectively.

For the molecule `C[C@H]1O[C@@H](O[C@H]2[C@@H](O)C[C@H](O[C@H]3[C@@H](O)C[C@H](O[C@H]4CC[C@@]5(C)[C@H](CC[C@@H]6[C@@H]5C[C@@H](O)[C@]5(C)[C@@H](C7=CC(=O)OC7)CC[C@]65O)C4)O[C@@H]3C)O[C@@H]2C)C[C@H](O)[C@@H]1O` [Digoxin], the Papp A→B at 2 h in data set [3] (Caco-2, pH 7.4, Efflux of digoxin A-B) stood at 2 nm/s. For the same molecule, the Papp B→A at 2 h in data set [3] (Caco-2, pH 7.4, Efflux of digoxin B-A) came to 36.9 nm/s. The molecule further showed a Papp B→A at 2 h, 10 µM in data set [3] (Caco-2, pH 7.4, Papp B-A (Digoxin)) of 82.4 nm/s.

In the case of `COc1cc([C@@H]2c3cc4c(cc3[C@@H](O[C@@H]3O[C@@H]5CO[C@@H](C)O[C@H]5[C@H](O)[C@H]3O)[C@H]3COC(=O)[C@H]23)OCO4)cc(OC)c1O` [Etoposide], the efflux ratio at 2 h came out at 11.5 in data set [1] and 13.7 in data set [2].

In the case of “shRNA/BCRP 801: 21-nucleotide sequence targeting human BCRP gene, SEQ ID NO: 25, lentivirally transduced into C2BBe1 cells; clone #801 (CCGGGCTGTGGCATTAAACAGAGAACTCGAGTTCTCTGTTTAATGCCACAGCTTTTTG; listed as Homo Sapiens)”, the “P-gp mRNA levels in shRNA/BCRP clone cells” value in data set [4] (compared with #799 and control cells) was “higher”. Besides, the “inhibition for BCRP function in E3S transport” value in data set [5] is 96.43%. In addition, the “MRP2 mRNA levels in shRNA/BCRP clone cells” value in data set [6] is listed as “reduced”. The “BCRP mRNA knockdown over passages” value in data set [7] was “steadily increased”.

As to “shRNA/P-gp #83: shRNA to human P-gp, SEQ ID NO: 1, lentivirally transduced into C2BBe1 cells; clone #83 (CCGGCCGAACACATTGGAAGGAAATCTCGAGATTTCCTTCCAATGTGTTCGGTTTTTG; listed as Homo Sapiens)”, the “P-gp mRNA expression relative to control C2BBe1 cells” value in data set [4] was “significantly reduced”. Further, the “P-gp function by intracellular calcein fluorescence” value in data set [8] is “significantly decreased”.

For “shRNA/P-gp #84: shRNA to human P-gp, SEQ ID NO: 2, lentivirally transduced into C2BBe1 cells; clone #84 (CCGGGCAGCAATTAGAACTGTGATTCTCGAGAATCACAGTTCTAATTGCTGCTTTTTG; listed as Homo Sapiens)”, the “P-gp mRNA expression relative to control C2BBe1 cells” value in data set [4] was “significantly reduced”. The “P-gp function by intracellular calcein fluorescence” value in data set [8] is listed as “significantly decreased”.

In the case of “shRNA/P-gp #85: shRNA to human P-gp, SEQ ID NO: 3, lentivirally transduced into C2BBe1 cells; clone #85 (CCGGCGACAGAATAGTAACTTGTTTCTCGAGAAACAAGTTACTATTCTGTCGTTTTTG; listed as Homo Sapiens)”, the “P-gp mRNA expression relative to control C2BBe1 cells” value in data set [4] is listed as “significantly reduced”. Moreover, the “P-gp function by intracellular calcein fluorescence” value in data set [8] is on record as “significantly decreased”.

In the case of “shRNA/P-gp #86: shRNA to human P-gp, SEQ ID NO: 4, lentivirally transduced into C2BBe1 cells; clone #86 (CCGGGCTCATCGTTTGTCTACAGTTCTCGAGAACTGTAGACAAACGATGAGCTTTTTG; listed as Homo Sapiens)”, the “P-gp mRNA expression relative to control C2BBe1 cells” value in data set [4] is reported as “significantly reduced”. In addition, in data set [8], the “P-gp function by intracellular calcein fluorescence” value is reported as “significantly decreased”.

With “shRNA/P-gp #87: shRNA to human P-gp, SEQ ID NO: 5, lentivirally transduced into C2BBe1 cells; clone #87 (CCGGGCTGCTTTCCTGCTGATCTATCTCGAGATAGATCAGCAGGAAAGCAGCTTTTTG; listed as Homo Sapiens)”, the “P-gp mRNA expression relative to control C2BBe1 cells” value in data set [4] is “significantly reduced”. Moreover, the “P-gp function by intracellular calcein fluorescence” value in data set [8] is “significantly decreased”.

These data come from patent publication US8110398B2, “Stable cell lines and methods for evaluating gastrointestinal absorption of chemicals” (Absorption Systems Group, LLC, priority 2006, dated 2012).
